Results as given in PubChem BioAssay AID602234 (The Scripps Research Institute Molecular Screening Center, 2012).
Calls of active or inactive are those of the source. The rule behind the calls is not given here.

Test: SRC3 coactivator transcriptional activity inhibitors, dose response, counter-screen for SRC1 inhibitor project, cell-based, luminescence (AID 602234);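 note: HEK293 cells co-transfected with pGL4.31 reporter and pBIND-SRC3 fusion vector; potency for inhibition of reporter luminescence with Gossypol as full inhibition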
Settings: transfected HEK293 cells, counter-screen luciferase reporter

SMILES | IC50
CC(=O)/C(N=Nc1ccc2c(c1)OCCO2)=C(\C)O | 3.11 µM
O=C(Nc1cccc(Cl)c1)Nc1nnc(-c2ccncc2)s1 | 3.62 µM
COc1cccc(CNc2ncnc3ccc(-c4c(C)noc4C)cc23)c1 | 9.92 µM
COc1ccc2[nH]c(=O)c(CN(CCN3CCCC3)C(=O)Nc3ccccc3Cl)cc2c1 | 8.7 µM
O=C(CCCOc1ccc(Cl)cc1Cl)N/N=C/c1ccccc1O | 6.32 µM
Cc1c(/C(O)=C2/C(=O)C(=O)N(Cc3cccnc3)C2c2ccccn2)cnn1-c1ccccc1 (stereo unspecified) | 6.55 µM
Cc1cc(C)nc(SCc2ccc(C(=O)N/N=C/c3cccc(O)c3O)cc2)n1 | 4.72 µM
CCN(C(=O)c1cccc(S(=O)(=O)N(C)C)c1)C12CC3CC(CC(C3)C1)C2 | 13.8 µM (inactive)
COc1ccc2c(=O)cc(-c3ccncc3)oc2c1OC | 3.16 µM
COc1ccc(OC)c(/C=C2\NC(=O)NC2=O)c1 | 5.99 µM
Cc1ccc(S(=O)(=O)NC(CC(C)C)C(=O)NCC(c2ccco2)N2CCCCC2)cc1 (stereo unspecified) | 3.11 µM
c1cc2[nH]snc2c2nc(C3CC3)nc12 | 1.2 µM
COc1cc([C@@H]2c3cc4c(cc3[C@@H](O[C@@H]3O[C@@H]5CO[C@@H](C)O[C@H]5[C@H](O)[C@H]3O)[C@H]3COC(=O)[C@H]23)OCO4)cc(OC)c1O | 0.375 µM
Cn1c(=O)c2[nH]c(COc3ccc(C(C)(C)C)cc3)nc2n(C)c1=O | 3.85 µM
Nc1ccn(C2OC(CO)C(O)C2O)c(=O)n1 (stereo unspecified) | 6.77 µM
O=C(Nc1c(-c2ccccc2)[nH][nH]c1=O)c1cccc(C(F)(F)F)c1 | > 35.8 µM (inactive)
O=C(CCl)N1N=C(c2ccco2)CC1c1cccs1 (stereo unspecified) | 0.694 µM
CCCS(=O)(=O)Nc1ccc(Nc2c3ccccc3nc3ccccc23)c(OC)c1 | 1.01 µM
O=C(NC1CCCCC1)C(c1cccnc1)N(C(=O)CCl)c1cccc(Cl)c1 (stereo unspecified) | 0.503 µM
Cc1ccc(OCC(=O)c2cc(C)n(Cc3cccs3)c2C)c([N+](=O)[O-])n1 | 5.23 µM
Cc1ccc2occ(/C=N/NC(=O)c3ccncc3)c(=O)c2c1 | 15.3 µM (inactive)
CN1CCN(c2cccc3c2C(=O)c2ccccc2C3=O)CC1 | > 35.9 µM (inactive)
CN(Cc1cnc2nc(N)nc(N)c2n1)c1ccc(C(=O)NC(CCC(=O)O)C(=O)O)c2ccccc12 (stereo unspecified) | 0.0186 µM

SMILES | IC50
CCCc1cc(C(=O)N(C)CC(=O)Nc2ccc(OCC)c(OCC)c2)sc1C | > 35.9 µM (inactive)
CCOc1cccc(/C=N/NC(=O)c2cccnc2)c1O | 9.67 µM
Nc1ccn([C@@H]2O[C@H](CO)[C@@H](O)C2O)c(=O)n1 (stereo partly specified) | 7.53 µM
CCn1c(Oc2cccc(Br)c2)nc2c1c(=O)n(C)c(=O)n2C | 17 µM (inactive)
O=C(CCl)N1N=C(c2ccco2)CC1c1ccco1 (stereo unspecified) | 0.762 µM
Cc1nc2sc(C(N)=O)c(N)c2c(C)c1CC(=O)c1ccccc1 | 2.63 µM
COc1ccccc1CNC(=O)C(=O)NCCC1CCCCN1S(=O)(=O)c1ccc(C)cc1 (stereo unspecified) | 10.2 µM (inactive)
N#Cc1c(-c2ccccc2)c(C#N)c2nc3ccccc3n2c1N | 21.9 µM (inactive)
CN(C)C(=O)c1ccc(-c2n[nH]c(=O)c3ccccc23)cc1 | 5.67 µM
O=C(OC(c1ccccc1)c1nccc2ccccc12)c1ccccc1 (stereo unspecified) | 0.661 µM
Cc1ccc2nc(C(F)(F)F)c(C#N)c(N)c2c1 | 5.13 µM
Cn1nc(C(F)(F)F)c(C#N)c1N1CCN(c2ccccc2)CC1 | 4.13 µM
CC(C)(C)c1cc(C(=O)N/N=C/c2ccc(O)cc2)n(-c2ccccc2)n1 | 27.1 µM (inactive)
COc1cc2c(cc1OC)C(NC(=O)C(F)(F)F)CNC2=O (stereo unspecified) | 2.62 µM
Fc1ccc(CSc2nnc(-c3ccncc3)o2)cc1 | 2.69 µM
C=C1C(=O)[C@@]23C[C@H]4[C@@H]5[C@@]6(C)CCC[C@@]57[C@@H]2[C@@H](O)[C@@H]1C[C@H]3[C@H]7N4C6 | 4.39 µM
Fc1cccc(CSc2nnc3ccc(-c4ccncc4)nn23)c1 | > 35.8 µM (inactive)
O=C(CCCc1nc(-c2ccccc2Cl)no1)NC1CCCC1 | 3.59 µM
CC(C)n1c(-c2cccnc2)nc2cnccc21 | 5.26 µM
O=C(CSc1nc(-c2cccs2)cc(C(F)(F)F)n1)Nc1cc(OCC(F)(F)C(F)F)cc([N+](=O)[O-])c1 | > 35.9 µM (inactive)
O=C(NC(NC(=S)N1CCOCC1)C(Cl)(Cl)Cl)c1ccc(Cl)cc1 (stereo unspecified) | 3.94 µM
C=CCOc1ccc(/C=C2\SC(=S)N(CCC(=O)O)C2=O)cc1 | 3.47 µM
CC(=O)c1cccc(NC(=O)COc2cc3oc(=O)c(CC(C)O)c(C)c3cc2Cl)c1 (stereo unspecified) | 6.25 µM

SMILES | IC50
N#Cc1c2ccc(O)cc2n2ccccc12 | 1.38 µM
COc1ccc(Nc2ncnc3ccc(Br)cc23)c(OC)c1 | 2.75 µM
c1cc2c(cn1)cnc1cscc12 | 4.51 µM
NC(=S)NN=Cc1nccc2c(N)cccc12 | 4.45 µM
O=C(N/N=C(\c1ccccc1)c1ccccn1)c1ccccc1Cl | 4.57 µM
O=C(CCn1cnc(-c2ccccc2)c1-c1ccccc1)N/N=C/c1ccccc1O | 12.2 µM (inactive)
NC(=O)c1cc(Sc2ccccc2)nc2ccccc12 | 10.9 µM (inactive)
O=C(Nc1cccc2c1CCCC2)c1cc([N+](=O)[O-])ccc1Cl | 3.47 µM
Cc1ccc(NC(=O)C2CCN(c3ncnc4sc(C)c(C)c34)CC2)cc1S(=O)(=O)N(C)C | > 12 µM (inactive)
Cc1sc2ncnc(N3CCC(C(=O)N(C)CC(=O)Nc4cccc(F)c4)CC3)c2c1C | 8.1 µM
Cc1ccc(O)c(Nc2ncnc3ccc([N+](=O)[O-])cc23)c1 | 3.59 µM
CCOc1ccc(/C=C2\SC(=S)N(CCCC(=O)NCCCN3CCOCC3)C2=O)cc1 | 5.91 µM
O=C1CCC/C1=c1\s/c(=C/c2cccnc2)c(=O)n1-c1ccccc1 | 6.2 µM
C=CCNc1ncnc2ccc(Br)cc12 | 2.3 µM
Cc1ccc(NC(=O)CCC(=O)N/N=C/c2ccc(O)cc2O)cc1 | 13.5 µM (inactive)
COc1ccc(Nc2ncnc3ccc(C)cc23)cc1 | 2.62 µM
Cc1c(CC(=O)NCCCC(=O)O)c(=O)oc2cc3c(cc12)CCC(C)(C)O3 | 3.86 µM
CC(=O)NC(c1cc(Cl)c2cccnc2c1O)C(C)C (stereo unspecified) | 6.32 µM
COc1ccc(-c2ncncc2-c2ccccc2)c(O)c1 | 4.24 µM
CCCS(=O)(=O)c1c(S(=O)(=O)CCC)c2c(C)cccn2c1C(=O)N/N=C/c1cc(O)cc(O)c1 | 10.2 µM (inactive)
CCOc1cc(C(N)=O)cc(Br)c1OC | 6.86 µM
CCCCCCCC[n+]1c(C)n(-c2ccccc2)c2ccc(NC(C)=O)cc21 | 4.36 µM
CC(=O)NC(c1cc(Cl)c2cccnc2c1O)C1CC1 (stereo unspecified) | 6.13 µM

SMILES | IC50
COc1ccc(CNc2ncc(-c3ccc(F)cc3)n2C)c2ccccc12 | 11.6 µM (inactive)
CCn1c(Oc2ccc(F)cc2)nc2c1c(=O)n(C)c(=O)n2C | 3.24 µM
COc1ccc(-c2cnc(N)nc2-c2ccc(OC)cc2O)cc1 | 7.07 µM
COc1cc2c3c([nH]c2cc1F)C(=O)NCC3 | 3.73 µM
CC1(C)Cc2c(ccc3ccccc23)C(=O)N1 | 3.21 µM
CCOC(=O)c1cccc2c1-c1ccccc1/C2=N/O | 3.73 µM
O=C(NC(=S)Nc1ccc(N2CCN(C(=O)c3ccccc3)CC2)cc1)c1cccs1 | 7.01 µM
O=C(O)CN1C(=O)/C(=C\c2ccccc2OCc2ccc(Cl)cc2Cl)SC1=S | 11 µM (inactive)
CC(C)(C)NC(=O)C1(C)CCC(=O)N1CCCn1ccnc1 (stereo unspecified) | 4.51 µM
CCn1c2ccccc2c2cnc(N=CN(C)C)c(C#N)c21 | 11.3 µM (inactive)
CNc1cccnc1C=NNC(N)=S | 0.522 µM
CCOc1ccc(/C=C2\SC(=S)N(CCC(=O)O)C2=O)cc1 | 2.12 µM
Cc1nc(N2CCC(C(N)=O)CC2)c2c(-c3cccs3)csc2n1 | 3.31 µM
CCOC(=O)c1c(NC(=O)C(C)N2CCN(C(=O)c3ccco3)CC2)sc2c1CCCC2 (stereo unspecified) | 9.89 µM
CCN(C(=O)c1cc(S(=O)(=O)N2CCCCC2)c[nH]1)c1ccc(OC)cc1 | 8 µM
CCOc1cccc(/C=N/NC(=O)c2cc(C3CC3)[nH]n2)c1O | 14.8 µM (inactive)
Cc1cccc(C)c1-n1nnnc1C(c1cccs1)N1CCC2(CC1)C(=O)NCN2c1ccccc1 (stereo unspecified) | 18.9 µM (inactive)
Oc1ccc(C=NNc2ccccn2)c(O)c1 | 6.53 µM
CC[C@@]1(O)C(=O)OCc2c1cc1n(c2=O)Cc2cc3c(NC(=O)CN)cccc3nc2-1 | 1.05 µM
O=[N+]([O-])c1cccc2c1ccc1ncccc12 | 10.3 µM (inactive)
O=C(O)c1ccccc1C(=O)Nc1ccc(Oc2cccc3ccccc23)cc1 | > 35.9 µM (inactive)
CCOc1ccc(-c2noc(CCC(=O)O)n2)cc1 | 15.2 µM (inactive)
CC(C)n1c(SCC(=O)Nc2nc3c(s2)CCCC3)nc2c1c(=O)n(C)c(=O)n2C | 5.86 µM

SMILES | IC50
NC(=S)NN=Cc1nccc2ccccc12 | 0.434 µM
CCc1ccc(/C=C2\SC(=S)N(CCCC(=O)NCCCN3CCOCC3)C2=O)cc1 | 3.28 µM
COc1ccc(Cc2nnc(SCc3ccc([N+](=O)[O-])cc3)o2)cc1 | 5.53 µM
O=C(CCC(=O)Nc1ccc(Br)cc1)N/N=C/c1ccccc1O | 4.33 µM
Cc1ccc(/C=C2\SC(=S)N(CCCC(=O)NC3CCCC3)C2=O)cc1 | 1.58 µM
COc1ccc2c(c1)-c1c(ssc1=S)C(C)(C)N2C(=O)CSC1=NCCS1 | 11.2 µM (inactive)
c1ccc(-c2csc3ncnc(NCCN4CCOCC4)c23)cc1 | 8.04 µM
NC(=S)NN=Cc1ccc(OC(=O)COc2cc(Cl)c(Cl)cc2Cl)cn1 | 7.06 µM
O=C1NCCc2c1[nH]c1ccc([N+](=O)[O-])cc21 | 8.25 µM
Cc1ccc(O)c(C(=O)c2cnn(C(=O)COc3ccc(Cl)cc3)c2)c1 | 7.96 µM
CCc1c(C)nc2c(C)cccc2c1SCCC#N | 13.6 µM (inactive)
Cc1cccc(C)c1-c1ccc(CN2C(CC(C)C)C(=O)N(Cc3cn(CC4CCCCC4)nn3)CCS2(=O)=O)cc1 (stereo unspecified) | 8.2 µM
CC(=O)c1cc2c(C)cc(=O)oc2cc1O | 11.2 µM (inactive)
COc1ccc(/C=C2/SC(=S)N(CCC(=O)O)C2=O)cc1 | 1.07 µM
COc1ccc(C(O)(C(C)C)C(CN2CCOCC2)c2ccc(Cl)cc2)cc1 (stereo unspecified) | 13.4 µM (inactive)
CCc1ccc(-c2nc(CSCC(=O)NCc3ccco3)c(C)o2)cc1 | 6.43 µM
O=C1c2cccc(OCc3ccc(F)cc3)c2CCN1Cc1ccccc1 | 4.15 µM
COc1cc(/C=C2\SC(N)=NC2=O)cc(OC)c1 | 7.14 µM
CCCCN(CCCC)c1ncnc2nc[nH]c12 | 2.14 µM
